Laboratory results: PubChem BioAssay (NCI)
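GI50: concentration for 50% inhibition of growth. TGI marks complete inhibition of growth.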

Key:
Assay in all cases: NCI tumour cell line growth inhibition, 384-well format
T-47D breast = test system: T-47D breast
A498 renal = test system: A498 renal
SNB-75 CNS = test system: SNB-75 CNS
HCT-116 colon = test system: HCT-116 colon
RXF 393 renal = test system: RXF 393 renal
HCT-15 colon = test system: HCT-15 colon
NCI-H522 lung = test system: NCI-H522 lung
UACC-257 melanoma = test system: UACC-257 melanoma
NCI-H322M lung = test system: NCI-H322M lung
SF-539 CNS = test system: SF-539 CNS
HOP-92 NSCLC = test system: HOP-92 NSCLC
SF-295 CNS = test system: SF-295 CNS
SF-268 CNS = test system: SF-268 CNS
MDA-MB-435 melanoma = test system: MDA-MB-435 melanoma
OVCAR-4 ovarian = test system: OVCAR-4 ovarian
OVCAR-3 ovarian = test system: OVCAR-3 ovarian
MCF7 breast = test system: MCF7 breast
SK-OV-3 ovarian = test system: SK-OV-3 ovarian
HT29 colon = test system: HT29 colon
RPMI-8226 leukemia = test system: RPMI-8226 leukemia
U251 glioblastoma = test system: U251 glioblastoma
A549 NSCLC = test system: A549 NSCLC
OVCAR-8 ovarian = test system: OVCAR-8 ovarian
NCI/ADR-RES ovarian = test system: NCI/ADR-RES ovarian
HS 578T breast = test system: HS 578T breast
K-562 leukemia = test system: K-562 leukemia
NCI-H226 lung = test system: NCI-H226 lung
MDA-MB-231 breast = test system: MDA-MB-231 breast
IGROV1 ovarian = test system: IGROV1 ovarian
SK-MEL-28 melanoma = test system: SK-MEL-28 melanoma
HCC-2998 colon = test system: HCC-2998 colon
BT-549 breast = test system: BT-549 breast
SW-620 colon = test system: SW-620 colon
CAKI-1 renal = test system: CAKI-1 renal
PC-3 prostate = test system: PC-3 prostate
SN12C renal = test system: SN12C renal
KM12 colon = test system: KM12 colon
M14 melanoma = test system: M14 melanoma
MDA-MB-468 breast = test system: MDA-MB-468 breast
EKVX NSCLC = test system: EKVX NSCLC
LOX IMVI melanoma = test system: LOX IMVI melanoma
NCI-H460 NSCLC = test system: NCI-H460 NSCLC
ACHN renal = test system: ACHN renal
SK-MEL-5 melanoma = test system: SK-MEL-5 melanoma
786-0 renal = test system: 786-0 renal
HOP-62 NSCLC = test system: HOP-62 NSCLC
UACC-62 melanoma = test system: UACC-62 melanoma
MOLT-4 leukemia = test system: MOLT-4 leukemia
UO-31 renal = test system: UO-31 renal
HL-60(TB) leukemia = test system: HL-60(TB) leukemia
TK-10 renal = test system: TK-10 renal
SNB-19 CNS = test system: SNB-19 CNS
DU-145 prostate = test system: DU-145 prostate
NCI-H23 lung = test system: NCI-H23 lung
CCRF-CEM leukemia = test system: CCRF-CEM leukemia
MALME-3M melanoma = test system: MALME-3M melanoma
COLO 205 colon = test system: COLO 205 colon
OVCAR-5 ovarian = test system: OVCAR-5 ovarian

`CN(CCO)C1CCN(c2ccc(Nc3ncc4c5ccnc(F)c5n(C5CCCC5)c4n3)nc2)CC1` was tested, and the GI50 (T-47D breast) was 1880 nM, the TGI (T-47D breast) was 67500 nM and the GI50 (A498 renal) was 853 nM. For the same compound, the TGI (A498 renal) was 2120 nM, the GI50 (SNB-75 CNS) was 1480 nM and the TGI (SNB-75 CNS) was 2810 nM. It also gave a GI50 (HCT-116 colon) of 684 nM, a TGI (HCT-116 colon) of 2050 nM and a GI50 (RXF 393 renal) of 1280 nM. For the same compound, the TGI (RXF 393 renal) was 2550 nM, the GI50 (HCT-15 colon) was 1080 nM and the TGI (HCT-15 colon) was 2320 nM. The GI50 (NCI-H522 lung) was 1770 nM, the TGI (NCI-H522 lung) was 3170 nM and the GI50 (UACC-257 melanoma) was 1550 nM. It also gave a TGI (UACC-257 melanoma) of 2900 nM, a GI50 (NCI-H322M lung) of 1340 nM and a TGI (NCI-H322M lung) of 2640 nM. For the same compound, the GI50 (SF-539 CNS) was 1380 nM, the TGI (SF-539 CNS) was 2680 nM and the GI50 (HOP-92 NSCLC) was 3020 nM. The TGI (HOP-92 NSCLC) was 15400 nM, the GI50 (SF-295 CNS) was 881 nM and the TGI (SF-295 CNS) was 2150 nM. For the same compound, the GI50 (SF-268 CNS) was 79.4 nM, the TGI (SF-268 CNS) was 941 nM and the GI50 (MDA-MB-435 melanoma) was 2260 nM. It also gave a TGI (MDA-MB-435 melanoma) of 9490 nM, a GI50 (OVCAR-4 ovarian) of 1730 nM and a TGI (OVCAR-4 ovarian) of 3130 nM. It also gave a GI50 (OVCAR-3 ovarian) of 1870 nM, a TGI (OVCAR-3 ovarian) of 3290 nM and a GI50 (MCF7 breast) of 353 nM. It also gave a TGI (MCF7 breast) of 1760 nM, a GI50 (SK-OV-3 ovarian) of 1450 nM and a TGI (SK-OV-3 ovarian) of 2780 nM. The GI50 (HT29 colon) was 1020 nM, the TGI (HT29 colon) was 2230 nM and the GI50 (RPMI-8226 leukemia) was 47.7 nM. The TGI (RPMI-8226 leukemia) was 1120 nM, the GI50 (U251 glioblastoma) was 1120 nM and the TGI (U251 glioblastoma) was 2350 nM. For the same compound, the GI50 (A549 NSCLC) was 619 nM, the TGI (A549 NSCLC) was 1990 nM and the GI50 (OVCAR-8 ovarian) was 1620 nM. For the same compound, the TGI (OVCAR-8 ovarian) was 3010 nM, the GI50 (NCI/ADR-RES ovarian) was 1740 nM and the TGI (NCI/ADR-RES ovarian) was 3170 nM. It also gave a GI50 (HS 578T breast) of 1420 nM, a TGI (HS 578T breast) of 3200 nM and a GI50 (K-562 leukemia) of 664 nM. It also gave a TGI (K-562 leukemia) of 2090 nM, a GI50 (NCI-H226 lung) of 5220 nM and a TGI (NCI-H226 lung) greater than 100000 nM. It also gave a GI50 (MDA-MB-231 breast) of 1260 nM, a TGI (MDA-MB-231 breast) of 2710 nM and a GI50 (IGROV1 ovarian) of 1050 nM. The TGI (IGROV1 ovarian) was 2260 nM, the GI50 (SK-MEL-28 melanoma) was 4060 nM and the TGI (SK-MEL-28 melanoma) was 16200 nM. It also gave a GI50 (HCC-2998 colon) of 655 nM, a TGI (HCC-2998 colon) of 2010 nM and a GI50 (BT-549 breast) of 1490 nM. It also gave a TGI (BT-549 breast) of 2830 nM, a GI50 (SW-620 colon) of 574 nM and a TGI (SW-620 colon) of 2010 nM. For the same compound, the GI50 (CAKI-1 renal) was 868 nM, the TGI (CAKI-1 renal) was 2150 nM and the GI50 (PC-3 prostate) was 1430 nM. The TGI (PC-3 prostate) was 2790 nM, the GI50 (SN12C renal) was 3020 nM and the TGI (SN12C renal) was 14900 nM. For the same compound, the GI50 (KM12 colon) was 56.8 nM, the TGI (KM12 colon) was 1280 nM and the GI50 (M14 melanoma) was 1190 nM. The TGI (M14 melanoma) was 2440 nM, the GI50 (MDA-MB-468 breast) was 1630 nM and the TGI (MDA-MB-468 breast) was 2990 nM. It also gave a GI50 (EKVX NSCLC) of 1270 nM, a TGI (EKVX NSCLC) of 2560 nM and a GI50 (LOX IMVI melanoma) of 977 nM. It also gave a TGI (LOX IMVI melanoma) of 2180 nM, a GI50 (NCI-H460 NSCLC) of 188 nM and a TGI (NCI-H460 NSCLC) of 1810 nM. It also gave a GI50 (ACHN renal) of 1000 nM, a TGI (ACHN renal) of 2190 nM and a GI50 (SK-MEL-5 melanoma) of 480 nM. It also gave a TGI (SK-MEL-5 melanoma) of 2030 nM, a GI50 ([…]-0 renal) of 1150 nM and a TGI (786-0 renal) of 2370 nM. The GI50 (HOP-62 NSCLC) was 1170 nM, the TGI (HOP-62 NSCLC) was 2420 nM and the GI50 (UACC-62 melanoma) was 1350 nM. It also gave a TGI (UACC-62 melanoma) of 2640 nM, a GI50 (MOLT-4 leukemia) of 62.4 nM and a TGI (MOLT-4 leukemia) of 812 nM. For the same compound, the GI50 (UO-31 renal) was 1200 nM, the TGI (UO-31 renal) was 2450 nM and the GI50 (HL-60(TB) leukemia) was 52.1 nM. The TGI (HL-60(TB) leukemia) was 1760 nM, the GI50 (TK-10 renal) was 1370 nM and the TGI (TK-10 renal) was 2700 nM. It also gave a GI50 (SNB-19 CNS) of 1370 nM, a TGI (SNB-19 CNS) of 2760 nM and a GI50 (DU-145 prostate) of 1720 nM. It also gave a TGI (DU-145 prostate) of 3130 nM, a GI50 (NCI-H23 lung) of 1200 nM and a TGI (NCI-H23 lung) of 2460 nM. The GI50 (CCRF-CEM leukemia) was 89.3 nM, the TGI (CCRF-CEM leukemia) was 1250 nM and the GI50 (MALME-3M melanoma) was 1340 nM. The TGI (MALME-3M melanoma) was 2640 nM, the GI50 (COLO 205 colon) was 373 nM and the TGI (COLO 205 colon) was 1950 nM. For the same compound, the GI50 (OVCAR-5 ovarian) was 885 nM and the TGI (OVCAR-5 ovarian) was greater than 100000 nM.
